Laboratory results published in US20060084704A1, “Methods and compositions for enhancing degradation of nuclear receptor transcription factors and uses thereof” (priority 2004, published 2006).

Key:
LNCaP cells = experiment: LNCaP growth assay (cell count); type: cell-based, human; conditions: 5 μM
Protocol: LNCaP cells express an endogenous mutant AR that is found in prostate cancer patients. This clinically relevant cell model was used to study JC9's effect in suppressing prostate cancer cell growth. Cells were plated at a density of 6.3×10^4 cells/well in 6-well tissue culture dishes. Two days later, the complete medium was aspired and 10% charcoal/dextran-treated (hormone depleted) serum-containing medium was added. Test compounds, JC9 and hydroxyflutamide (HF) were then added to the medium at a final concentration of 5 μM with or without 1 nM of DHT. For vehicle control, the same amount of DMSO was added. For the subsequent 5 days, the medium was aspired once per day, and fresh medium containing test compounds and/or DHT was added. At designated times, a portion of cells was harvested by trypsinization, and cell count was performed using a hemacytometer.

progesterone receptor = target: T1, progesterone receptor (Homo sapiens, UniProt P06401); experiment: Western blot of LNCaP cell lysates, progesterone receptor; type: cell-based; conditions: 1 or 2 micromolar, 24 hours, presence or absence of DHT
T1 construct: endogenous in cells; host or cells: LNCaP
T1 sequence (P06401 1-933): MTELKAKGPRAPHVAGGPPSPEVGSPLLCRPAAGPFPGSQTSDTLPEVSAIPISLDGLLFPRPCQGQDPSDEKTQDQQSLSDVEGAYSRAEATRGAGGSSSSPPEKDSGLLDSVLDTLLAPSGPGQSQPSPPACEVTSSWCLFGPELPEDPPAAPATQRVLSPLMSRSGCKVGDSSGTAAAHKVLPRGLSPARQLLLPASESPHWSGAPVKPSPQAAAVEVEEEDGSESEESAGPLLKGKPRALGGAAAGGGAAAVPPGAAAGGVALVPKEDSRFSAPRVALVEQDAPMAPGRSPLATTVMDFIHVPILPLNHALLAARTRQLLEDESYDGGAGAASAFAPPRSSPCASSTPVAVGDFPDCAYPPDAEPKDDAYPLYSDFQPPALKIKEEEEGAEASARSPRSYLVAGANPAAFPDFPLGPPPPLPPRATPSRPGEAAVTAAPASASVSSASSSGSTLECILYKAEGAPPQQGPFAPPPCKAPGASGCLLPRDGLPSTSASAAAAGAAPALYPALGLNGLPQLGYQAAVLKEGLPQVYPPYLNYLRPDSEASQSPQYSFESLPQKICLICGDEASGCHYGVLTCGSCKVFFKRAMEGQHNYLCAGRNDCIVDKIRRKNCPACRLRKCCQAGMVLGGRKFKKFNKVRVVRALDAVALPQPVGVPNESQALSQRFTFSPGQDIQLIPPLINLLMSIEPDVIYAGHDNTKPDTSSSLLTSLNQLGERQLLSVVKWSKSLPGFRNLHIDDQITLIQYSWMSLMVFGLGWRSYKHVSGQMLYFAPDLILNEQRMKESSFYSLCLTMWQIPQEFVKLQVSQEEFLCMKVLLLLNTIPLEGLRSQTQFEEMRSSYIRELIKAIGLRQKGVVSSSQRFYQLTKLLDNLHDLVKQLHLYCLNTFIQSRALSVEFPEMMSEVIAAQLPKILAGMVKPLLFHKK

hsp70 = experiment: Western blot of LNCaP cell lysates, hsp70; type: cell-based, human; conditions: 1 or 2 micromolar, 24 hours, presence or absence of DHT
Protocol: (§1) Human prostate cancer LNCaP cells and T47D cells were plated at a density of 7×10^5 cells per 60 millimeter tissue culture dish in […] (RPMI) medium containing 10% FBS. The medium was changed to RPMI or DME medium containing 10% charcoal-stripped serum 24 hours later to deplete cellular androgens or estrogens. After another 24 hours, treatment with the test compounds began. The test dose of JC15 was 1 or 2 micromolar and the test does of JC9 was 1, 5 and 10 micromolar. LNCap cells also received dihydrotestosterone (DHT) (3 nanomolar). Control cells received a corresponding amount of the vehicle, dimethylsulfoxide (DMSO) (<0.04%) for an equivalent exposure time. Cells were incubated with JC15 for 24 or 48 hours, and were lysed in 250 microliters of 1×SDS/PAGE loading buffer. Approximately 40 micrograms of total cellular protein was loaded in each lane of a pre-cast gel (NuPAGE, Invitrogen). Protein separation and transfer were performed following the manufacturer's instructions.
(§2) For the prostate cell lysates, androgen receptor (AR) protein was visualized by incubating the resultant membranes with an anti-AR antibody (BD-PharMingen), followed by chemiluminescence detection (ECL Plus, Amersham). […] The resultant protein signals were quantified using densitometry and NIH ImageJ software.

retinoid X receptor = experiment: Western blot of LNCaP cell lysates, RXR; type: cell-based, human; conditions: 1 or 2 micromolar, 24 hours, presence or absence of DHT
Protocol: as §1, §2

[1] = system: prostate-specific antigen (PSA); experiment: Western blot of LNCaP cell lysates, PSA; type: cell-based, human; conditions: 1 or 2 micromolar, 24 hours, presence or absence of DHT
Protocol: as §1, §2

glucocorticoid receptor = target: T2, glucocorticoid receptor (Homo sapiens, UniProt P04150); experiment: Western blot of LNCaP cell lysates, GR; type: cell-based; conditions: 1 or 2 micromolar, 24 hours, presence or absence of DHT
T2 construct: endogenous in cells; host or cells: LNCaP
T2 sequence (P04150 1-777): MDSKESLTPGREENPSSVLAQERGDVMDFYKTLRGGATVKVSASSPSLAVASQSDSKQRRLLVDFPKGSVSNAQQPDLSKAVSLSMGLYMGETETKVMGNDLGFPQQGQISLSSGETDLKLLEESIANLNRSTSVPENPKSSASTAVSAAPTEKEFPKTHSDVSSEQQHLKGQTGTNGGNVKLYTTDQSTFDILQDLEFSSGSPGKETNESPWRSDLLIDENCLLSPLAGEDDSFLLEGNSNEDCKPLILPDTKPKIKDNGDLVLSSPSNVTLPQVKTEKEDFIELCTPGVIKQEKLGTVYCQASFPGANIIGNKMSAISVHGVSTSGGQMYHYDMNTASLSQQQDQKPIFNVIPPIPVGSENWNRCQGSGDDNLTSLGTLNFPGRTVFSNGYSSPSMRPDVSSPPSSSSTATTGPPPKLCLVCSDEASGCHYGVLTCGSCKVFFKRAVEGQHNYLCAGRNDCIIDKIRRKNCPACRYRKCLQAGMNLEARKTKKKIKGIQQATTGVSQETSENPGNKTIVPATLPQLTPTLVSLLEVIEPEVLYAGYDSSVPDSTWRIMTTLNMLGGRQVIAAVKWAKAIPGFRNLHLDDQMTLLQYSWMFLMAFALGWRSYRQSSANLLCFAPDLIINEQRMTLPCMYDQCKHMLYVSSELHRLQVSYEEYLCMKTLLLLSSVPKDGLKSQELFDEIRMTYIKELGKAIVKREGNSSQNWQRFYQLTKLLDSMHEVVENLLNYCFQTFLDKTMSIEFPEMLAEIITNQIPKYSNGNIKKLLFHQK
Protocol: as §1, §2

cellular concentration of progesterone receptor (progesterone receptor) | cellular concentration of glucocorticoid receptor (glucocorticoid receptor) | Compound | cell growth (cell number) in the presence of DHT (LNCaP cells; with 1 nM DHT, 5 days) | cell growth (cell number) (LNCaP cells; without DHT, 5-day incubation) | cellular concentration of hsp70 (hsp70) | cellular concentration of retinoid X receptor (retinoid X receptor) | PSA levels [1]
 |  | COc1ccc(C=CC(=O)C=C(O)C=Cc2ccc(OC)c(OC)c2)cc1OC [JC9, 5-hydroxy-1,7-bis(3,4-dimethoxyphenyl)-1,4,6-heptatrien-3-one] | good potency to decrease LNCaP cell growth | only a minimal number of viable cells |  |  | 
decreased | did not substantially affect | CCOC(=O)CCC(C(=O)C=Cc1ccc(O)c(OC)c1)C(=O)C=Cc1ccc(O)c(OC)c1 (stereo not shown) [JC15, 7-(4-hydroxy-3-methoxyphenyl)-4-[3-(4-hydroxy-3-methoxyphenyl)acryloyl]-5-oxo-hept-6-enoic acid ethyl ester] |  |  | did not substantially affect | did not substantially affect | decreased
